pIC50: −log10 of the molar value. Read-outs that look alike come from different tables or passages of the source.
Columns and labels:
[1] = biological target: AC1 (Homo sapiens, UniProt Q08828); assay: cAMP accumulation (HTRF) in HEK cells stably expressing AC1, stimulated with A23187; type: cell-based; set-up: expressed in transfected cells; host or cells: HEK cells stably expressing AC1 (HEK-AC1), G418 selection
Description: The screen was carried out using HEK cells stably expressing AC1 (HEK-AC1) and cyclic AMP accumulation was stimulated using the Ca^2+ ionophore, A23187 to selectively activate AC1. […]
(§1) The primary technology we employed to measure cAMP accumulation was a homogenous time-resolved fluorescence (HTRF) assay, the same technology utilized in the primary screen. […]
(§2) Briefly, cryopreserved cells were thawed, resuspended in optiMEM (Life Technologies), and plated in white, flat bottom, low-volume, tissue culture-treated 384 well plates (PerkinElmer, Shelton, Conn.). Plates with cells were incubated in a 37° C. humidified incubator for 1 h. Inhibitors were added and plates were incubated at room temperature for 30 min followed by the addition of AC stimulants in the presence of 500 μM IBMX. Cells were incubated at room temperature for 1 h and cAMP accumulation was measured using Cisbio's cAMP kit (Cisbio Bioassays, Bedford, Mass.) according to the manufacturer's instructions.

[2] = biological target: AC8 (Homo sapiens, UniProt P40145); assay: cAMP accumulation (HTRF) in HEK cells stably expressing AC8, stimulated with A23187; type: cell-based; set-up: expressed in transfected cells; host or cells: HEK cells stably expressing AC8 (HEK-AC8), hygromycin B selection; conditions: Table 1; for Max AC8 Inh (%): maximum inhibition of AC8; for pIC50: HEK-AC8 cells, A23187-stimulated cAMP accumulation
Chain of AC8 (P40145 whole entry, species assumed): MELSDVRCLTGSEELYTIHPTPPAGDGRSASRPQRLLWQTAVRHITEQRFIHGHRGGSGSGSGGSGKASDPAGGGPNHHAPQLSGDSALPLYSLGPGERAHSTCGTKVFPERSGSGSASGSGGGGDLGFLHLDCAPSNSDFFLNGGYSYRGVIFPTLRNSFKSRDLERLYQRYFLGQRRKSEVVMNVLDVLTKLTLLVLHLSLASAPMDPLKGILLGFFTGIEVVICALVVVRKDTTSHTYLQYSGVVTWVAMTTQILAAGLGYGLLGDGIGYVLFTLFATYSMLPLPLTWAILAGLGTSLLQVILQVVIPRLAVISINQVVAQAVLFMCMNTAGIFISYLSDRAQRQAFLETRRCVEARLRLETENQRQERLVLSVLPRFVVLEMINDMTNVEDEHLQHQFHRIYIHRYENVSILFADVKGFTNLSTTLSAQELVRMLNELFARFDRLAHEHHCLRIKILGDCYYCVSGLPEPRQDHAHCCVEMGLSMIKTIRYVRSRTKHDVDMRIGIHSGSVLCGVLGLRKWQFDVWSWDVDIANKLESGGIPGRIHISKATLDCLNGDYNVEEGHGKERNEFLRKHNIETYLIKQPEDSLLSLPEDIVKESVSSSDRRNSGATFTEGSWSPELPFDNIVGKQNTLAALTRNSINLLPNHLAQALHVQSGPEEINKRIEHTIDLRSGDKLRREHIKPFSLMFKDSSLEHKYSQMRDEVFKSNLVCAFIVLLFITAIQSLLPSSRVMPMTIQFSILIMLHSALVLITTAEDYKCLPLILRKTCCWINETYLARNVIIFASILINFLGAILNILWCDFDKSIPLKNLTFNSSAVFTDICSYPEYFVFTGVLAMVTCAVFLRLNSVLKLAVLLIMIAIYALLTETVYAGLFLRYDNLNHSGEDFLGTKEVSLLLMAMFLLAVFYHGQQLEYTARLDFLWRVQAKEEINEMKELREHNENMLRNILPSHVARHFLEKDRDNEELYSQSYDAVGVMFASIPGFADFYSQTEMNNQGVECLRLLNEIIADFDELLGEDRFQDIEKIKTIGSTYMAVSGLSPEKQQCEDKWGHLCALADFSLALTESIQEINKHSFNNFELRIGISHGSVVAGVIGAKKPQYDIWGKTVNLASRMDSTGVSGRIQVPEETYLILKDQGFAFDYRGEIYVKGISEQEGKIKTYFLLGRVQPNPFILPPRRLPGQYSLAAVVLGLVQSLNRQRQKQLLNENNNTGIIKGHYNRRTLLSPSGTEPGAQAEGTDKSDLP
Description: as §1, §2

[3] = Table 1, HEK-AC1 cells, A23187-stimulated cAMP accumulation, read-out: AC1 IC50

Chain of AC1 (Q08828 whole entry): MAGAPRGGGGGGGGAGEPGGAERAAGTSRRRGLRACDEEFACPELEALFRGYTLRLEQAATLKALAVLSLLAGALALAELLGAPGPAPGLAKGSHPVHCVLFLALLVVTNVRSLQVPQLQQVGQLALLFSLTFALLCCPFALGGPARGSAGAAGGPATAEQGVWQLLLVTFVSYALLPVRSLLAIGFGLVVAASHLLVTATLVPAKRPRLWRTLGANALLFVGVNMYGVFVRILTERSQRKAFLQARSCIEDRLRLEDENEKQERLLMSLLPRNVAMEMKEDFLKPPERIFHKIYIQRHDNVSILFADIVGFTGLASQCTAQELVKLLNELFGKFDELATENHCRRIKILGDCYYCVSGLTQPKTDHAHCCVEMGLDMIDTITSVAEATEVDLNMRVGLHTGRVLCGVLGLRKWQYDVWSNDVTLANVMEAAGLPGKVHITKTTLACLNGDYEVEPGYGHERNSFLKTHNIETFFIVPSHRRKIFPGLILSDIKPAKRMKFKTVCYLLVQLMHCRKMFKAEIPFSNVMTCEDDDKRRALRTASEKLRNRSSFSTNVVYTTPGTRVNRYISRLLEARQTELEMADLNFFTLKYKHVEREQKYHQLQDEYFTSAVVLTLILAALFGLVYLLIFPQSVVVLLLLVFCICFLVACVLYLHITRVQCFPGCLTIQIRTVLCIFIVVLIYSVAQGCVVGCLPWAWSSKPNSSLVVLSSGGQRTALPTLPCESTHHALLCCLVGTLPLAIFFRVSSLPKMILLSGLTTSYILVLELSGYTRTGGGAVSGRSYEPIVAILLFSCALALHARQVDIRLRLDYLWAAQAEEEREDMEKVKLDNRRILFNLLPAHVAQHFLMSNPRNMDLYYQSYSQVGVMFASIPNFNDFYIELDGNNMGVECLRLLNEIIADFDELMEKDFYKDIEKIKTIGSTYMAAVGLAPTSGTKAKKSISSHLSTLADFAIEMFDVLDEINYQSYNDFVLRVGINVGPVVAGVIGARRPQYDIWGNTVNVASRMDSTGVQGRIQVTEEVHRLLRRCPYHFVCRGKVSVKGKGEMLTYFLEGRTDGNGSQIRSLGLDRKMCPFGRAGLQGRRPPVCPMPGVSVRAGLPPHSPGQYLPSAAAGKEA

Row | Compound | pIC50 [1, 3] | Max AC8 Inh (%) [2] | pIC50 [2] | pIC50 [1]
1 | CCc1cc(=O)[nH]c(-n2nc(C)cc2NC(=O)c2ccccc2F)n1 [AC10048, N-(1-(6-ethyl-4-oxo-1,4-dihydropyrimidin-2-yl)-3-methyl-1H-pyrazol-5-yl)-2-fluorobenzamide] | 5.82 | 46% | – | –
2 | CCc1cc(=O)[nH]c(-n2nc(C)cc2NC(=O)c2ccccc2)n1 [AC10068, N-(1-(6-ethyl-4-oxo-1,4-dihydropyrimidin-2-yl)-3-methyl-1H-pyrazol-5-yl)benzamide] | 5.57 | 0% | – | –
3 | CCc1cc(=O)[nH]c(-n2nc(C)cc2NC(=O)c2ccco2)n1 [AC10069, N-(1-(6-ethyl-4-oxo-1,4-dihydropyrimidin-2-yl)-3-methyl-1H-pyrazol-5-yl)furan-2-carboxamide] | 5.21 | 20% | – | –
4 | CCc1cc(=O)[nH]c(-n2nc(C)cc2NC(=O)c2ccc(OCOC)cc2)n1 [AC10071, N-(1-(6-ethyl-4-oxo-1,4-dihydropyrimidin-2-yl)-3-methyl-1H-pyrazol-5-yl)-4-(methoxymethoxy)benzamide] | 5.49 | – | 4.64 | –
5 | CCc1cc(=O)[nH]c(-n2nc(C)cc2NC(=O)c2cccc(OC)c2)n1 [AC10073, N-(1-(6-ethyl-4-oxo-1,4-dihydropyrimidin-2-yl)-3-methyl-1H-pyrazol-5-yl)-3-methoxybenzamide] | – | 5% | – | 6.00
6 | CCc1cc(=O)[nH]c(-n2nc(C)cc2NC(=O)c2ccccc2CC)n1 [AC10074, 2-ethyl-N-(1-(6-ethyl-4-oxo-1,4-dihydropyrimidin-2-yl)-3-methyl-1H-pyrazol-5-yl)benzamide] | 5.55 | 21% | 4.30 | –
7 | CCc1cc(=O)[nH]c(-n2nc(C)cc2NC(=O)Cc2cccc(C)c2)n1 [AC10075, N-(1-(6-ethyl-4-oxo-1,4-dihydropyrimidin-2-yl)-3-methyl-1H-pyrazol-5-yl)-2-(m-tolyl)acetamide] | 5.00 | 59% | 4.30 | –
8 | CCc1cc(=O)[nH]c(-n2nc(C)cc2NC(=O)c2ccc(OC)cc2)n1 [AC10076, N-(1-(6-ethyl-4-oxo-1,4-dihydropyrimidin-2-yl)-3-methyl-1H-pyrazol-5-yl)-4-methoxybenzamide] | – | 0% | 4.48 | –
9 | CCc1cc(=O)[nH]c(-n2nc(C)cc2NC(=O)c2ccccc2C)n1 [AC10077, N-(1-(6-ethyl-4-oxo-1,4-dihydropyrimidin-2-yl)-3-methyl-1H-pyrazol-5-yl)-2-methylbenzamide] | 5.62 | 11% | – | –
10 | CCc1cc(=O)[nH]c(-n2nc(C)cc2NC(=O)c2cccc(C)c2)n1 [AC10079, N-(1-(6-ethyl-4-oxo-1,4-dihydropyrimidin-2-yl)-3-methyl-1H-pyrazol-5-yl)-3-methylbenzamide] | – | 27% | 4.57 | 6.40
11 | CCc1cc(=O)[nH]c(-n2nc(C)cc2NC(=O)c2cccc(F)c2)n1 [AC10091, N-(1-(6-ethyl-4-oxo-1,4-dihydropyrimidin-2-yl)-3-methyl-1H-pyrazol-5-yl)-3-fluorobenzamide] | 5.92 | 55% | 4.92 | –
12 | CCc1cc(=O)[nH]c(-n2nc(C)cc2NC(=O)c2ccccn2)n1 [AC10093, N-(1-(6-ethyl-4-oxo-1,4-dihydropyrimidin-2-yl)-3-methyl-1H-pyrazol-5-yl)picolinamide] | – | 46% | 4.82 | –

Further lines, with some results ahead:

Row | pIC50 [1, 3] | Max AC8 Inh (%) [2] | pIC50 [2] | Compound | pIC50 [1]
13 | 6.52 | 32% | 5.02 | CCc1cc(=O)[nH]c(-n2nc(C)cc2NC(=O)c2ccc(Cl)cc2)n1 [AC10058, 4-chloro-N-(1-(6-ethyl-4-oxo-1,4-dihydropyrimidin-2-yl)-3-methyl-1H-pyrazol-5-yl)benzamide] | –
14 | 6.15 | 27% | 4.32 | CCc1cc(=O)[nH]c(-n2nc(C)cc2NC(=O)c2ccc(C)cc2)n1 [AC10080, N-(1-(6-ethyl-4-oxo-1,4-dihydropyrimidin-2-yl)-3-methyl-1H-pyrazol-5-yl)-4-methylbenzamide] | –
15 | 6.40 | 12% | – | CCc1cccc(C(=O)Nc2cc(C)nn2-c2nc(CC)cc(=O)[nH]2)c1 [AC10081, 3-ethyl-N-(1-(6-ethyl-4-oxo-1,4-dihydropyrimidin-2-yl)-3-methyl-1H-pyrazol-5-yl)benzamide] | –
16 | 6.30 | 19% | 4.43 | CCc1ccc(C(=O)Nc2cc(C)nn2-c2nc(CC)cc(=O)[nH]2)cc1 [AC10082, 4-ethyl-N-(1-(6-ethyl-4-oxo-1,4-dihydropyrimidin-2-yl)-3-methyl-1H-pyrazol-5-yl)benzamide] | –
17 | 6.40 | 28% | 4.62 | CCc1cc(=O)[nH]c(-n2nc(C)cc2NC(=O)c2cccc(C(C)C)c2)n1 [AC10087, N-(1-(6-ethyl-4-oxo-1,4-dihydropyrimidin-2-yl)-3-methyl-1H-pyrazol-5-yl)-3-isopropylbenzamide] | –
18 | 6.40 | 52% | 5.01 | CCc1cc(=O)[nH]c(-n2nc(C)cc2NC(=O)c2cccc(SC)c2)n1 [AC10088, N-(1-(4-ethyl-6-oxo-1,6-dihydropyrimidin-2-yl)-3-methyl-1H-pyrazol-5-yl)-3-(methylthio)benzamide] | –
19 | 6.15 | 41% | 4.74 | CCc1cc(=O)[nH]c(-n2nc(C)cc2NC(=O)c2cccc(C(F)(F)F)c2)n1 [AC10089, N-(1-(4-ethyl-6-oxo-1,6-dihydropyrimidin-2-yl)-3-methyl-1H-pyrazol-5-yl)-3-(trifluoromethyl)benzamide] | –
20 | 6.40 | 48% | 5.16 | CCc1cc(=O)[nH]c(-n2nc(C)cc2NC(=O)c2cccc(Cl)c2)n1 [AC10090, 3-chloro-N-(1-(6-ethyl-4-oxo-1,4-dihydropyrimidin-2-yl)-3-methyl-1H-pyrazol-5-yl)benzamide] | –
21 | 6.05 | 52% | 4.85 | CCc1cc(=O)[nH]c(-n2nc(C)cc2NC(=O)c2ccc(F)cc2)n1 [AC10092, N-(1-(6-ethyl-4-oxo-1,4-dihydropyrimidin-2-yl)-3-methyl-1H-pyrazol-5-yl)-4-fluorobenzamide] | –

Source: patent US20230250084A1, “PYRAZOLYL PYRIMIDINONE COMPOUNDS AND THE USES THEREOF” (Purdue Research Foundation, priority 2019, published 2023)
